Assay: xn = mol fraction of the nth substance listed
Details: 101 kPa

CC[n+]1ccccc1.O=S(=O)([O-])C(F)(F)F + O
viscosity [mPa·s]
Details | 293.15 K | 298.15 K | 303.15 K | 313.15 K | 323.15 K | 333.15 K | 343.15 K | 353.15 K
x1 = 0.067 | – | – | 1.9 | 1.5 | 1.22 | 1.02 | – | –
x1 = 0.183 | 5.3 | 4.6 | 4.03 | 3.16 | 2.55 | 2.1 | 1.76 | –
x1 = 0.498 | 17.7 | – | 13 | 9.96 | 7.86 | 6.34 | 5.24 | 4.41
x1 = 0.689 | 33.4 | 27.8 | 23.5 | – | 13.26 | 10.46 | – | 6.92
x1 = 0.893 | 65.7 | 53.2 | 43.7 | 30.8 | 22.5 | 17.1 | 13.4 | –
x1 = 1 | 75.2 | 60.6 | 48.8 | 33.8 | 24.5 | 18.2 | 14.05 | 11.13

CC[n+]1ccccc1.O=S(=O)([N-]S(=O)(=O)C(F)(F)F)C(F)(F)F + O
viscosity [mPa·s]
Details | 283.15 K | 293.15 K | 298.15 K | 303.15 K | 313.15 K | 333.15 K | 343.15 K | 353.15 K
x2 = 0.0043 | 78.6 | 49.9 | 40.1 | 33.3 | 24 | 13.7 | 10.88 | –
x2 = 0.087 | 64.3 | 41.7 | – | 28.4 | 20.6 | 12.15 | – | 7.92

O + CC[n+]1ccccc1.O=S(=O)([O-])C(F)(F)F
x2 = 0
Details | viscosity [mPa·s]
298.15 K | 0.89
303.15 K | 0.8
313.15 K | 0.65
333.15 K | 0.47
343.15 K | 0.4
